From patent US20050261130A1, “Novel surfactants and formulations” (Monsanto Technology LLC, priority 2000, published 2005)

Columns and labels:
[1] = system: Velvetleaf (ABUTH) and Japanese millet (ECHCF); assay: Greenhouse herbicidal effectiveness, overall statements for both weeds; type: in vivo, Abutilon theophrasti; Echinochloa crus-galli; conditions: summary sentence of the respective Example
From the text: The herbicidal effectiveness data set forth herein report “inhibition” as a percentage following a standard procedure in the art which reflects a visual assessment of plant mortality and growth reduction by comparison with untreated plants, made by technicians specially trained to make and record such observations. In all cases, a single technician makes all assessments of percent inhibition within any one experiment or trial. Such measurements are relied upon and regularly reported by Monsanto Company in the course of its herbicide business.
The following procedure was used for testing compositions of the Examples to determine herbicidal effectiveness, except where otherwise indicated. […]
Pots were assigned to different treatments in a fully randomized experimental design with 6 replications. A set of pots was left untreated as a reference against which effects of the treatments could later be evaluated.
Application of glyphosate compositions was made by spraying with a track sprayer fitted with a 9501 E nozzle calibrated to deliver a spray volume of 93 liters per hectare (l/ha) at a pressure of 165 kilopascals (kPa). After treatment, pots were returned to the greenhouse until ready for evaluation. […]

[2] = Specific gravity (Mettler DA-300 Density/Specific Gravity Meter); type: physicochemical; conditions: 20/15.6° C.; 30% a.e. by weight glyphosate monobasic salt solutions
Procedure: Specific gravities are measured using a Mettler DA-300 Density/Specific Gravity Meter.

[3] = Density of formulations (Mettler DA-300 Density Meter); type: physicochemical; conditions: 20° C.; 50.0% glyphosate acid (61% potassium glyphosate) solution of Example A
Procedure: The density was then determined using a Mettler DA-300 Density Meter and the concentrations in grams per liter was calculated.

[4] = cited from earlier work
[5] = Cloud point of aqueous concentrate compositions; type: physicochemical; conditions: 12 wt % surfactant
Procedure: For aqueous solution concentrates, high temperature storage stability is often indicated by a cloud point of about 50° C. or more. Cloud point of a composition is normally determined by heating the composition until the solution becomes cloudy, and then allowing the composition to cool, with agitation, while its temperature is continuously monitored. A temperature reading taken when the solution clears is a measure of cloud point. A cloud point of 50° C. or more is normally considered acceptable for most commercial purposes for a glyphosate SL formulation. Ideally the cloud point should be 60° C. or more, and the composition should withstand temperatures as low as about −10° C. for up to about 7 days without crystal growth, even in the presence of seed crystals of the glyphosate salt.
Cloud points were measured by heating a small amount of the material in a test tube until the solution became hazy or cloudy then removing the test tube from the heat and observing the temperature at which the solution became clear on cooling. The temperature at which the solution became clear is noted as the cloud point.
Cloud point was determined for certain liquid compositions of Examples 66-69 as follows. A sample of the composition in a test tube was heated in a water bath until it became cloudy. The test tube was then removed from the water bath and the sample stirred with a thermometer until it became clear. The temperature at which the sample became clear was recorded as the cloud point of the composition.

[6] = Haake viscosity (Haake VT500, shear rate 45 sec^−1); type: physicochemical; conditions: 12 wt % surfactant
Procedure: (§1) Viscosities were measured using a Haake Model VT500(Haake, Inc., Karlsruhe Germany) equipped with the appropriate MV series cup and bob sensor system at a shear rate of 45 sec^−1. The temperature was varied with the attached water bath. For a few samples for which insufficient sample was available the viscosities were measured with a Brookfield Model DV-11 equipped with a Small Sample Adapter (Brookfield Laboratories, Inc., Stoughton, Mass.).

[7] = Compatibility of surfactant with potassium glyphosate concentrate (no phase separation, 50° C., 1 week); type: physicochemical; conditions: 50° C. oven 1 week; for Compatible w/37% a.e. K + glyphosate at 12 wt % loading: 37 wt. % a.e. potassium glyphosate/12 wt. % surfactant; for Compatible w/40% a.e. K + glyphosate at 10% wt loading: 40 wt. % a.e. potassium glyphosate/10 wt. % surfactant; for Compatible w/45% a.e. K + glyphosate at 15% wt loading: 45 wt. % a.e. potassium glyphosate/15 wt. % surfactant
Procedure: For the 31 wt. % a.e. potassium glyphosate/10 wt. % surfactant compositions: 1.550 g of 40 wt. % a.e. aqueous glyphosate potassium salt solution was weighed into a vial. To the same vial, 0.200 g of surfactant was added. Enough deionized water was then added to the contents to bring the total weight to 2.000g. The mixture was stirred for 2 hours at room temperature and checked to see if a solution had been formed. If a solution was present, the test vial was allowed to stand at room temperature overnight. If a solution was still present, the test vial was placed in a 50° C. oven for 1 week. If no phase separation had occurred in one week, the surfactant being tested was considered “compatible.” All of the surfactants identified in Table 4 were compatible at the 31% a.e. potassium/10 wt. % surfactant loading.
For the 37 wt. % a.e. potassium glyphosate/12 wt. % surfactant compositions: 41.1 g of 45 wt. % a.e. aqueous glyphosate potassium salt was weighed to a container. To the same container was added 6.0 g of surfactant and 2.9 g deionized water for a total weight of 50.0 g. The remainder of the protocol is the same as that described for the 31 wt. % samples. The surfactants identified in Table 4 that were compatible at the 37% a.e. potassium/12 wt. % surfactant loading are indicated in Table 5 below.
For the 40 wt. % a.e. potassium glyphosate/10 wt. % surfactant compositions: 1.79 g of 45 wt. % a.e. aqueous glyphosate potassium salt was weighed into a vial. To the same vial was added 0.2 g of surfactant. The remainder of the protocol is the same as that described for the 31 wt. % samples. The surfactants identified in Table 4 that were compatible at the 40% a.e. potassium/10 wt. % surfactant loading are indicated in Table 5 below.
For the 45 wt. % a.e. potassium glyphosate/15 wt. % surfactant compositions: 1.100 g of solid mono potassium glyphosate was weighed into a vial. To the same vial was added 0.300 g surfactant. Enough deionized water was added to the vial to bring the final weight to 2.000 g. The remainder of the protocol is the same as that described for the 31 wt. % samples. The surfactants identified in Table 4 that were compatible at the 45% a.e. potassium/[…] are indicated in Table 5 below.

[8] = Brookfield viscosity (Model DV-11, Small Sample Adapter); type: physicochemical; conditions: 10° C.
Procedure: as §1

[9] = Compatibility of surfactant with diammonium glyphosate concentrate (no phase separation, 50° C., 1 week); type: physicochemical; conditions: 50° C. oven 1 week; for Compatible w/31% a.e. diammonium glyphosate at 10 wt % loading: 31 wt. % a.e. diammonium glyphosate/10 wt. % surfactant; for Compatible w/37% a.e. diammonium glyphosate at 12 wt % loading: 37 wt. % a.e. diammonium glyphosate/12 wt. % surfactant
Procedure: For the 31 wt. % a.e. NH4^+glyphosate/10 wt. % surfactant compositions: • 1.48 g of 41.9 wt % a.e. aqueous glyphosate diammonium (1.7 eq) salt was weighed into a vial. To the same vial was added 0.2 g of surfactant and 0.32 g deionized water. The remainder of the protocol is the same as that described for the 31 wt % potassium glyphosate samples. The surfactants identified in Table 4 that were compatible at the 31% a.e. ammonium/10 wt. % surfactant loading are indicated in Table 5 below.
For the 37 wt. % a.e. NH4^+glyphosate/12 wt. % surfactant compositions: • 1.76 g of 41.9 wt % a.e. aqueous glyphosate diammonium (1.7 eq) salt was weighed into a vial. To the same vial was added […]. The remainder of the protocol is the same as that described for the 31 wt % potassium glyphosate samples. The surfactants identified in Table 4 that were compatible at the 37% a.e. ammonium/12 wt. % surfactant loading are indicated in Table 5 below.

| Molecule | Cloud Point Data 37% a.e. K + glyphosate at 12 wt % loading [5] | Viscosity Data 37% a.e. K + glyphosate at 12 wt % loading, Haake Vis. ([6]; 0° C.) | Viscosity Data 37% a.e. K + glyphosate at 12 wt % loading, Haake Vis. ([6]; 5° C.) | Viscosity Data 37% a.e. K + glyphosate at 12 wt % loading, Haake Vis. ([6]; 10° C.) | Viscosity Data 37% a.e. K + glyphosate at 12 wt % loading, Haake Vis. ([6]; 15° C.) | Viscosity Data 37% a.e. K + glyphosate at 12 wt % loading, Haake Vis. ([6]; 25° C.) | Viscosity Data 37% a.e. K + glyphosate at 12 wt % loading, Haake Vis. ([6]; −5° C.) | Compatible w/37% a.e. K + glyphosate at 12 wt % loading [7] | Compatible w/45% a.e. K + glyphosate at 15% wt loading [7] | Viscosity Data 37% a.e. K + glyphosate at 12 wt % loading, Brookfield Vis. ([8]; Spindle 31, 12 rpm) | Viscosity Data 37% a.e. K + glyphosate at 12 wt % loading, Brookfield Vis. ([8]; Spindle 31, 60 rpm) | Compatible w/31% a.e. diammonium glyphosate at 10 wt % loading [9] | Compatible w/37% a.e. diammonium glyphosate at 12 wt % loading [9] | also measured |
| --- | --- | --- | --- | --- | --- | --- | --- | --- | --- | --- | --- | --- | --- | --- |
| (C12-14)O(CHCH3CH2)O—(CHCH3CH2)N(EO)x(EO)y x + y = 5 [Composition M121] | – | – | – | – | – | – | – | – | – | – | – | – | – | Herbicidal effectiveness overall or on both ABUTH and ECHCF, comparison in words [1]: more effective for potentiating the IPA |
| O=C(O)CNCP(=O)([O-])O.[K+] [potassium, glyphosate potassium salt] | – | – | – | – | – | – | – | – | – | – | – | – | – | Specific Gravity [2]: 1.2539; Density of the resulting solution [3]: approximately 1.4661 grams/milliliter; Solubility in pure water ([4]; 20° C., as salt): about 54 % by weight; Solubility in pure water, glyphosate acid equivalent ([4]; 20° C.): about 44 % glyphosate acid equivalent (a.e.) by weight |
| CCCCN(CCCC)CCCN [F] | >90 °C | 273.01 cPs | 173.57 cPs | 142.38 cPs | 110.89 cPs | 57.29 cPs | 400.48 cPs | Yes | Yes | – | – | – | – | Compatible w/40% a.e. K + glyphosate at 10% wt loading [7]: Yes |
| CC(C)CC(C)CC(C)COCCCNCCCN (centres unmarked) [R] | >90 °C | 2517 cPs | 2269 cPs | 1963 cPs | 1420 cPs | 1077 cPs | −5° C., too thick | Yes | – | – | – | – | – | – |
| O=C(O)CNCP(=O)(O)O [glyphosate, N-phosphonomethylglycine] | – | – | – | – | – | – | – | – | – | – | – | – | – | Solubility in water ([4]; 25° C.): 1.16 % by weight |
| CCCCCCCCCCCCCCCCCCN(C)CC(O)C(O)C(O)C(O)CO (centres unmarked) [SS] | – | – | – | – | – | – | – | Yes | – | 12 rpm, 86.5 cp | 60 rpm, 88.2 cp | No | No | – |
| CCCCCCCCN(C)CC(O)C(O)C(O)C(O)CO (centres unmarked) [UU] | – | – | – | – | – | – | – | Yes | – | 12 rpm, 114 cp | 60 rpm, 113 cp | No | No | – |
| CCCCCCN(CCCN(CCCCCC)CC(O)C(O)C(O)C(O)CO)CC(O)C(O)C(O)C(O)CO (centres unmarked) [Surfactant AAA, 1,6 hexylaminoglucitol propane] | – | – | – | – | – | – | – | Yes | Yes | 12 rpm, 76.5 cp | 60 rpm, 78.2 cp | Yes | Yes | – |
| NCCOCCOCCN [DD] | >90 °C | 231.17 cPs | 150.26 cPs | 138.80 cPs | 82.51 cPs | 49.37 cPs | 397.16 cPs | Yes | – | – | – | – | – | – |
| CCCCCCCCNCC(O)C(O)C(O)C(O)CO (centres unmarked) [AA] | >90 °C | – | – | – | – | – | – | Yes | Yes | – | – | Yes | Yes | Viscosity Data 37% a.e. K + glyphosate at 12 wt % loading, Brookfield Viscosity ([8]; Spindle 31, 12 rpm): 12 rpm, 52.6 cPs; Viscosity Data 37% a.e. K + glyphosate at 12 wt % loading, Brookfield Viscosity ([8]; Spindle 31, 60 rpm): 60 rpm, 60.1 cPs; Compatible w/40% a.e. K + glyphosate at 10% wt loading [7]: Yes |
